Converted amounts (≈) assume the structure as drawn. “Also recorded” adds a separate entry of the source.

Results on three compounds are retold here after publication PMC9861858, “Stereoselective Synthesis and Antiproliferative Activities of Tetrafunctional Diterpene Steviol Derivatives” (International Journal of Molecular Sciences, 2023).

The subject of one data set is HeLa cells. Nature of the data set: MTT antiproliferative assay, HeLa. It counts as cell-based, human. Particulars: Homo sapiens, HeLa, 72 h, values <20% considered negligible, read-out: Growth inhibition (%) ± SEM, HeLa. As to the method:
(§1) The in vitro antiproliferative activities of the synthesised aminotriols 5–18 against a panel of different human cancer cell lines of gynecological origin, including cervical (SiHA and HeLa), breast (MCF7 and MDA-MB-231), ovary (A2780) cancers and NIH/3T3 healthy fibroblasts, were assayed by the MTT method. Cisplatin, a clinically applied anticancer agent was used as a reference compound, and the results are summarised in Figure 3 and Table S1 in the Supplementary Materials.
(§2) The growth-inhibitory effects of the presented terpenes were determined by a standard MTT [3-(4,5-dimethylthiazol2-yl)-2,5-diphenyltetrazolium bromide] assay against […] human cancer cell lines (cervical cancer HeLa and SiHa cell lines, breast cancer MCF-7 and MDA-MB-231 and ovarian cancer A2780). Murine embryonal fibroblast cells (NIH/3T3) were used to determine selectivity. All cell lines were purchased from the European Collection of Cell Cultures (Salisbury, UK). The cells were cultivated in Eagle’s minimal essential medium supplemented with 10% fetal bovine serum, 1% non-essential amino acids, and 1% Antibiotic-Antimycotic complex (penicillin, streptomycin, amphotericin B) at 37 °C in a humidified atmosphere containing 5% CO2. All media and supplements were purchased from Lonza Group Ltd. (Basel, Switzerland). Cancer cells were seeded into 96-well plates (5000 cells/well) after an overnight incubation, and the test compounds were added at two different concentrations (10 μM and 30 μM) and incubated for another 72 h under cell-culturing conditions. Finally, 20 μL of a 5 mg/mL MTT solution was added to each well, and the contents were incubated for a further 4 h. The medium was removed, and the precipitated formazan crystals were dissolved in DMSO by shaking at 37 °C for 60 min. The absorbance was measured at 545 nm by using a microplate reader (SPECTROStar Nano, BMG Labtech, Offenburg, Germany). Clinically utilised anticancer agent cisplatin (Ebewe GmbH, Unterach, Austria) was included as a reference molecule. Calculations were performed using the GraphPad Prism 9 software (GraphPad Software Inc., San Diego, CA, USA).
(In general: Tetrazolium dyes change colour on reduction, which living cells bring about.)

In a further data set the test system is SiHa cells. The experiment in a line: MTT antiproliferative assay, SiHa. The note with it: Homo sapiens, SiHa, 72 h, values <20% considered negligible, read-out: Growth inhibition (%) ± SEM, SiHa. The data set is classed as cell-based, human. Here is the method:
as §1, §2

In the next data set the test system is MCF-7 cells. Nature of the data set: MTT antiproliferative assay, MCF-7. It counts as cell-based, human. Particulars: for Antiproliferative effect / selectivity on MCF-7, in words: 10 and 30 μM; for inhibition at 10 µM / inhibition at 30 µM: Homo sapiens, 72 h, values <20% considered negligible, read-out: Growth inhibition (%) ± SEM, MCF-7; for inhibition at 10 µM: MCF7, 10 μM; for inhibition at 30 µM: MCF7, 30 μM. Here is the method:
as §1, §2

Another data set has as its system MDA-MB-231 cells. The experiment in a line: MTT antiproliferative assay, MDA-MB-231. The note with it: for inhibition at 10 µM / inhibition at 30 µM: Homo sapiens, 72 h, values <20% considered negligible, read-out: Growth inhibition (%) ± SEM, MDA-MB-231; for inhibition at 10 µM: MDA-MB-231, 10 μM; for inhibition at 30 µM: MDA-MB-231, 30 μM. It counts as cell-based, human. Here is the method: as §1, §2

Another data set concerns A2780 cells. Nature of the data set: MTT antiproliferative assay, A2780. The data set is classed as cell-based, human. Particulars: for inhibition at 10 µM / inhibition at 30 µM: Homo sapiens, 72 h, values <20% considered negligible, read-out: Growth inhibition (%) ± SEM, A2780; for inhibition at 10 µM: A2780, 10 μM; for inhibition at 30 µM: A2780, 30 μM. Here is the method:
as §1, §2

The test system of a further data set is NIH/3T3 fibroblasts. Nature of the data set: MTT assay on fibroblasts (selectivity). The data set is classed as cell-based, murine. Particulars: Mus musculus, 72 h, values <20% considered negligible, read-out: Growth inhibition (%) ± SEM, NIH/3T3; for inhibition at 10 µM: NIH3T3, 10 μM; for inhibition at 30 µM: NIH3T3, 30 μM. Here is the method:
as §1, §2

A short description of data set [1]: Kinetic aqueous solubility. The note with it: phosphate buffered saline with 5% DMSO, aqueous with cosolvent or surfactant or cyclodextrin, kinetic from dmso stock; after 2 h, at 37 °C in PBS, pH 7.4, 5% DMSO; target concentration 500 μM; mean ± S.E.M, n = 3. It counts as physicochemical. As to the method: (§3) Filtrates and calibration solutions (5–500 μ M) of the kinetic solubility study and starting donor and acceptor solutions of the PAMPA-GI study were investigated by HPLC-DAD-MS. LC-MS analysis was performed using a Waters 2795 HPLC with a Waters 2487 DAD detector coupled with a Micromass Quattro Ultima TMPt quadrupol mass spectrometer equipped with an ESI source. Measurements were performed on a Waters XSelect C18 (150 × 4.6 mm; 3.5 μm) column with a […] eluent flow rate and the temperature set at 40 °C. The composition of eluent A was MilliQ water with 0.1% formic acid, and that of eluent B was an acetonitrile and MilliQ water mixture (95:5, v/v), also with 0.1% formic acid. The following linear gradient program was used: 0–6 min, 10–100% B; this was held for 3 min, then from 9.01 min on, back to the starting composition of 10% B–90% A. The injection volume was 10 μL for each sample. Chromatographic profiles were registered at dual wavelength, 220 and 240 nm. The mass spectrometer was used in negative ion mode for samples 2, 3 and 4b, and in positive ion mode for other samples. The operating parameters of the MS were: Mass range of m/z 150–700. Nitrogen gas flow rate was 350 L/h, temperature of 350 °C and pressure of 6 bar. The quadrupol temperature was 120 °C, and the capillary voltage was 2.5 kV. Fragmentor’s voltage of 60 V.
(§4) Intestinal (GI) permeability was determined by using an intestinal-specific parallel artificial membrane permeability assay (PAMPA-GI [36]]). […] All solutions were filtered by MultiScreen HTS Vacuum Manifold (Merck Ltd., Budapest, Hungary) after the incubation period. The target concentration was 500 μM for every sample investigated. The intestinal-specific effective permeability of the samples was determined by PAMPA-GI. To prepare starting solutions for a 96-well donor plate, 15 μLs of the 10 mM DMSO stock solution of investigation compounds and 285 μL pH 6.5 phosphate buffer solution were mixed. These solutions were left in a shaking incubator (300 rpm) at 25 °C for 1 h. Meanwhile, a 96-well acceptor plate was filled with 300 μL of pH 7.4 PBS buffer solution containing 5% DMSO. The intestinal-specific artificial membrane was prepared the following way: the hydrophobic filter material of the donor plate was coated with a mixture of phosphatidylcholine/cholesterol = 2:1 (5 μL, 4 % (w/v) in dodecane). After that, all donor wells were filled with 150 μL of the starting donor solutions, and they were carefully placed on the acceptor plate and incubated at 37 °C for 4 h. After the end of the incubation period the donor and acceptor plates were separated carefully. A total of 150 μL of the donor, acceptor and the starting donor solutions were sampled and analysed with HPLC-DAD-MS. The effective permeability and membrane retention of drugs were calculated using the following equations: Pe=−2.303/A·(t−τss)·1/1+rv·lg[−rv+(1+rv/1−MR)·]CD(t)/CD(0) MR=1−CD(t)/CD(0)−VA·CA(t)/VD·CD(0) where Pe is the effective permeability coefficient (cm/s), A is the filter area (0.3 cm^2), VD and VA are the volumes in the donor (0.15 cm^3) and acceptor phase (0.3 cm^3), t is the incubation time (s), τSS is the time to reach steady-state (s), CD(t) is the concentration of the compound in the donor phase at time point t (mol/cm^3), CD(0) is the concentration of the compound in the donor phase at time point zero (mol/cm^3), rv is the aqueous compartment volume ratio (VD/VA), MR is the membrane retention factor.

A short description of data set [2]: Intestinal-specific parallel artificial membrane permeability assay (PAMPA-GI). The data set is classed as in vitro ADME. Particulars: gradient pH system (pH donor 6.5 → pH acceptor 7.4) after 4 h, at 37 °C, mean ± S.E.M, n = 3; for Papp at 4 h, 500 µM: PAMPA, read-out: PAMPA-GI Pe. As to the method:
as §3, §4
A general note: In PAMPA a lipid-coated filter parts donor from acceptor wells.

Usually kinetic solubility stands for the concentration staying in solution when a stock, usually in DMSO, is diluted into the medium. Usually melting point stands for the temperature of the solid-liquid transition. `COC(=O)[C@]1(C)CCC[C@@]2(C)C3CC[C@]4(O)C[C@@]3(CCC21)[C@@H](O)[C@]4(O)CN[C@H](C)c1ccccc1` (stereo partly drawn) [Compound 7, (4R,6aR,7R,8R,9S,11bS)-Methyl 7,8,9-Trihydroxy-4,11b-dimethyl-8-((((R)-1-phenylethyl)amino)methyl)tetradecahydro-6a,9-methanocyclohepta[a]naphthalene-4-carboxylate] gave a melting point of 84 to 87 °C. Moreover, in the data set on HeLa cells, the inhibition at 10 µM amounted to 33.7 ± 0.93% and the inhibition at 30 µM came out at 97.76 ± 0.25%. In addition, in the data set on SiHa cells, the inhibition at 10 µM was less than 20% and the inhibition at 30 µM was found to be 94.56 ± 0.54%. For the same compound, in the data set with MCF-7 cells, the “Antiproliferative effect / selectivity on MCF-7, in words” value is reported as “slightly weaker action”; the inhibition at 10 µM turned out to be 62.8 ± 1.05%; the inhibition at 30 µM worked out at 97.69 ± 0.38%. Moreover, in the data set on MDA-MB-231 cells (10 and 30 μM), the “Antiproliferative effect / selectivity on MDA-MB-231, in words” value is “noteworthy selectivity”. In the data set on MDA-MB-231 cells, the inhibition at 10 µM turned out to be 88.05 ± 0.59% and the inhibition at 30 µM is 94.56 ± 0.63%. Also, the “Antiproliferative effect on A2780, in words” value in the data set with A2780 cells (10 and 30 μM) was “slightly weaker action”. For the same compound, in the data set on A2780 cells, the inhibition at 10 µM came out at 52.9 ± 1.83% and the inhibition at 30 µM turned out to be 98.14 ± 0.36%. For the same compound, in the data set with NIH/3T3 fibroblasts, the inhibition at 10 µM stood at 35.8 ± 4.12% and the inhibition at 30 µM is 100.5 ± 0.37%. The kinetic solubility at 2 h in data set [1] came out at 182 ± 3.2 µM (≈ 88.2 µg/mL). In data set [2], the Papp at 4 h, 500 µM was 0.64 ± 0.07 ×10⁻⁶ cm/s and the “PAMPA-GI MR (membrane retention)” value came to 28.8 ± 5.8%.
Compound `COC(=O)[C@]1(C)CCC[C@@]2(C)C3CC[C@]4(O)C[C@@]3(CCC21)[C@@H](O)[C@]4(O)CN[C@@H](C)c1ccc2ccccc2c1` (stereo partly drawn) [Compound 13, (4R,6aR,7R,8R,9S,11bS)-Methyl 7,8,9-Trihydroxy-4,11b-dimethyl-8-((((S)-1-(naphthalen-2-yl)ethyl)amino)methyl)tetradecahydro-6a,9-methanocyclohepta[a]naphthalene-4-carboxylate] returned a melting point of 81 to 83 °C. Moreover, in the data set on HeLa cells, the inhibition at 10 µM turned out to be 94.5 ± 1.24% and the inhibition at 30 µM was 94.9 ± 1.29%. For the same compound, in the data set with SiHa cells, the inhibition at 10 µM stood at 93.8 ± 1.81% and the inhibition at 30 µM is 93.77 ± 0.41%. In the data set on MCF-7 cells, the inhibition at 10 µM turned out to be 95.74 ± 0.64% and the inhibition at 30 µM is 95.44 ± 0.85%. Besides, in the data set on MDA-MB-231 cells, the inhibition at 10 µM amounted to 93.33 ± 0.29% and the inhibition at 30 µM was found to be 93.21 ± 0.46%. In addition, in the data set on A2780 cells, the inhibition at 10 µM turned out to be 96.64 ± 0.35% and the inhibition at 30 µM is 96.79 ± 0.2%. Moreover, in the data set on NIH/3T3 fibroblasts, the inhibition at 10 µM was found to be 72 ± 1.81% and the inhibition at 30 µM was determined as 90.5 ± 1.31%. Moreover, in [1], the kinetic solubility at 2 h was found to be 11.9 ± 1.8 µM (≈ 6.38 µg/mL). For the same compound, in data set [2], the “PAMPA-GI MR (membrane retention)” value is reported as 92.6 ± 1.1%.
On to `COC(=O)[C@]1(C)CCC[C@@]2(C)C3CC[C@]4(O)C[C@@]3(CCC21)[C@@H](O)[C@]4(O)CNCc1ccc(OC)cc1` (stereo partly drawn) [Compound 10, (4R,6aR,7R,8R,9S,11bS)-Methyl 7,8,9-Trihydroxy-8-(((4-methoxybenzyl)amino)methyl)-4,11b-dimethyltetradecahydro-6a,9-methanocyclohepta[a]naphthalene-4-carboxylate], for which the melting point was in the range of 161 to 163 °C. Further, in the data set with HeLa cells, the inhibition at 10 µM turned out to be 27.8 ± 1.05% and the inhibition at 30 µM was found to be 96.06 ± 0.93%. In the data set with SiHa cells, the inhibition at 10 µM came out at 24.1 ± 1.39% and the inhibition at 30 µM was 94.64 ± 0.5%. Also, in the data set with MCF-7 cells, the “Antiproliferative effect / selectivity on MCF-7, in words” value is “higher selectivity; also recorded: performed best”; the inhibition at 10 µM was found to be 74.3 ± 2.62%; the inhibition at 30 µM worked out at 95.66 ± 0.76%. Further, in the data set with MDA-MB-231 cells, the inhibition at 10 µM was 37.8 ± 2.27% and the inhibition at 30 µM is 93.42 ± 0.56%. In the data set on A2780 cells, the inhibition at 10 µM was less than 20% and the inhibition at 30 µM is 96.79 ± 0.25%. In the data set on NIH/3T3 fibroblasts, the inhibition at 10 µM is less than 20% and the inhibition at 30 µM was 90.9 ± 1.17%. This compound also yielded a kinetic solubility at 2 h in [1] of 143 ± 26.8 µM (≈ 71.7 µg/mL). In data set [2], the Papp at 4 h, 500 µM came out at 0.37 ± 0.11 ×10⁻⁶ cm/s and the “PAMPA-GI MR (membrane retention)” value turned out to be 6.1 ± 1.1%.
